Assay results from patent publication US8507420B2, “Solvent composition” (Toyota Jidosha Kabushiki Kaisha, priority 2009, dated 2013).
Entries after “also recorded” stand apart in the source; their conditions may differ.

Tests used:
[1] = Thermal stability of SOD mimetic compounds (retained SOD activity after thermal process in solvents/oils); assay type: physicochemical; settings: for retained activity after thermal process / retained activity: 120 minutes; for retained activity after thermal process: solvent not stated; for decline in activity after thermal process: dehydrated ethanol, 60 minutes, FIG. 4
From the text: (§1) In this example, Mn-cpx3, Mn-TBAP, Mn-TMPyP and Mn-TM-2-PyP were purchased from Aldrich Company, and were used as SOD mimetic compounds. These compounds are low-molecular complex having π-conjugate system. These compounds are basically water-soluble, and are also soluble in ethanol and in lubricating oils. In the case where an SOD mimetic compound was to be dissolved in ethylene glycol, and in a food oil containing vegetable sterol and glycerin ester as main components, the SOD mimetic compound was first dissolved in ethanol, and then the ethanol solution was added into ethylene glycol and a food oil. In the case where an SOD mimetic compound was to be dissolved in an engine oil (trade name: Eneos Motor Oil), the SOD mimetic compound was firstly dissolved in dimethyl sulfoxide (DMSO), and then the DMSO solution was added into the engine oil. As for the concentration conditions for thermal stability, investigation was performed in the presence of 1 to 10 μg/mL of an SOD mimetic compound in the water-based solution and 10 to 50 μg/mL of an SOD mimetic compound in the oil-based solution, with 10% of ethanol or DMSO, in the temperature range of 50 to 140° C.
The SOD activity of the SOD mimetic compounds was measured by using as an index the oxidation of a water-soluble tetrazolium salt (WST) by oxygen radicals generated from xanthin-xanthin oxidase. Specifically, the WST was used as a substrate of the oxidation by oxygen radicals, and the activity measurement was performed by using as an index the difference in the production of water-soluble tetrazolium formazan made by the presence and the absence of the SOD mimetic compound (see the following document: H. Ueda, D. Kawana, S. Maeda and M. Sawamura, Biosci. Biotechnol. Biochem., 63, 485-488, 1999). As the WST is oxidized to become water-soluble tetrazolium formazan, ultraviolet absorption occurs at 450 nm. Therefore, by measuring this ultraviolet absorption, the oxidation reaction by oxygen radicals can easily be measured. The activity measurement buffer was a 35 mM sodium carbonate solution (pH 10.2) containing 0.17 mM of xanthin and 0.11 mM of EDTA. The oxidation substrate used was 0.24 mM of the WST. The SOD mimetic compounds were dissolved in ethanol or DMSO. The concentrations thereof at the time of measurement of activity were 0.1 to 0.8 μg/mL.
In this example, the vegetable food oil used was diacyl glycerol. Mn-TMPyP retained 50% of the activity at 70° C. after 120 minutes, and 40% of the activity at 100° C. after 120 minutes. […] It has become clear that Mn-cpx3 is particularly excellent in the SOD-mimetic activity and the thermal stability in food oil.
With regard to Mn-cpx3, which was considered to be the most excellent in activity and thermal stability, the stability thereof in other oil solutions was investigated. […] However, in engine oil, the stability sharply declines to about 10 to 20%.

[2] = SOD activity measurement (WST oxidation by oxygen radicals from xanthin-xanthin oxidase, absorption at 450 nm); assay type: biochemical; settings: FIG. 2
From the text: In this activity measurement system, the WST used as the oxidation substrate can be considered to be a model compound as the substance that is subject to oxidation by oxygen radicals, that is, as the functional substance. […]

[3] = Solubility of SOD mimetic compounds in water, ethanol, oils; assay type: physicochemical; settings: solvent as stated in value
From the text: as §1

[4] = vegetable food oil (diacyl glycerol), 100° C., FIG. 5

Row | Compound | retained activity after thermal process ([1]; 50° C.) [%] | retained activity after thermal process ([1]; 100° C.) [%] | decline in activity after thermal process ([1]; 70° C.) | retained activity ([1]; ethylene glycol, 140° C., FIG. 6) [%] | retained activity [1, 4] [%] | retained activity ([1]; vegetable food oil (diacyl glycerol), 140° C., FIG. 5) [%] | stability in water-based ethanol ([1]; water-based ethanol) | relative activity per unit weight with reference to the enzyme activity of the PEG-modified A. per SOD ([2]; after the process in ethanol at 50° C. for 10 minutes) [times] | relative activity per unit weight with reference to the enzyme activity of the PEG-modified A. per SOD ([2]; in water) [times] | solubility [3] | retained activity ([1]; vegetable food oil (diacyl glycerol), 70° C., FIG. 5) [%]
1 | manganese (Mn) complex of 7-hydroxyflavone [Mn-cpx3] | ~100 | ≥ 70 | substantially no decline in the activity | 70 | 60 | 50 | highly stable | 850 | 460 | soluble in ethylene glycol and in vegetable oil; also recorded: soluble even in oil solutions | 
2 | O=C(O)c1ccc(C2=C3C=CC(=N3)C(c3ccc(C(=O)O)cc3)=c3ccc([nH]3)=C(c3ccc(C(=O)O)cc3)c3ccc([n-]3)C(c3ccc(C(=O)O)cc3)c3ccc2[n-]3)cc1.[Cl-].[Mn+3] (stereo not shown) [Mn-TBAP, Mn(III) tetrakis(4-benzoic acid)porphyrin chloride] |  |  | substantially no decline in the activity |  |  |  |  |  |  |  | 
3 | C[n+]1ccc(-c2c3nc(c(-c4cc[n+](C)cc4)c4ccc([nH]4)c(-c4cc[n+](C)cc4)c4nc(c(-c5cc[n+](C)cc5)c5ccc2[nH]5)C=C4)C=C3)cc1.[Mn+3] [Mn-TMPyP, Mn(III) tetrakis(1-methyl-4-pyridyl)porphyrin] |  |  |  |  | 40 |  |  |  |  |  | 50
